Data reported in PubChem BioAssay AID652107 (NMMLSC, 2013).

Tested on: human granulocytes, fMLF-stimulated F-actin, FITC-phalloidin flow
Experiment: inhibition of fMLF-induced F-actin formation, mechanism study for Cdc42 probe extension project, cell-based, primary human granulocytes, FITC-phalloidin flow cytometry (AID 652107)
Settings: at 10 µM; active compounds read high

## COc1ccc(C2CC(c3ccccc3)=NN2c2ccc(S(N)(=O)=O)cc2)cc1 (stereo unspecified)
  inhibition: 10%
